Reference: ChEMBL document CHEMBL6074692, “Design, synthesis, and evaluation of novel benzofuran and pyrazole-based derivatives as dual AChE/BuChE inhibitors with antioxidant properties for Alzheimer's disease management” (Eur J Med Chem, 2025)
In brackets after ≈: the same amount, converted by molar mass. Activity calls are given as the source filed them. No cut-off for these calls is given here.

Tests used:
Acetylcholinesterase [1] = molecular target: T1, Acetylcholinesterase (Homo sapiens, UniProt P22303); experiment: Inhibition of AChE (unknown origin) by Ellman's method
[2] = Antioxidant activity assessed as DPPH radical scavenging activity; assay type: functional
Cholinesterase = Cholinesterase (Homo sapiens, UniProt P06276); experiment: Inhibition of BuChE (unknown origin)
[3] = Toxicity in male Wistar rat assessed as MCH level at 10 mg/kg, po (reference value: 18.50 +/- 1.52 pg); assay type: organism-based; settings: in vivo
[4] = Toxicity in male Wistar rat assessed as WBC level at 10 mg/kg, po (reference value: 4.60 +/- 0.61 10^3/cmm); assay type: organism-based; settings: in vivo
[5] = Toxicity in male Wistar rat assessed as MCHC level at 10 mg/kg, po (reference value: 32.52 +/- 2.48 g/dL); assay type: organism-based; settings: in vivo
[6] = Toxicity in male Wistar rat assessed as urea level at 10 mg/kg, po (reference value: 29.89 +/- 1.84 mg/dL); assay type: organism-based; settings: in vivo
Acetylcholinesterase [7] = molecular target: T1, Acetylcholinesterase; experiment: Mixed inhibition of AChE (unknown origin)
[8] = Toxicity in male Wistar rat assessed as total bilirubin level at 10 mg/kg, po (reference value: 0.68 +/- 0.11 mg/dL); assay type: organism-based; settings: in vivo
[9] = Toxicity in male Wistar rat assessed as decrease in proliferation of Kupffer cells at 10 mg/kg, po by H and E staining based analysis; assay type: organism-based; settings: in vivo
[10] = Chronic toxicity in male Wistar rat assessed as drug tolerance at 10 mg/kg, po measured after 1 month; assay type: organism-based; settings: in vivo, 730 h, time 1 months
[11] = Chronic toxicity in male Wistar rat assessed as negative side effects at 10 mg/kg, po measured after 1 month; assay type: organism-based; settings: in vivo, 730 h, time 1 months
[12] = Toxicity in male Wistar rat assessed as ALT level at 10 mg/kg, po (reference value: 42.18 +/- 3.35 U/L); assay type: organism-based; settings: in vivo
[13] = Toxicity in male Wistar rat assessed as ALP level at 10 mg/kg, po (reference value: 137.18 +/- 7.04 U/L); assay type: organism-based; settings: in vivo
[14] = Toxicity in male Wistar rat assessed as RBC level measured per million cells at 10 mg/kg, po (reference value: 6.96 +/- 0.45 /cm); assay type: organism-based; settings: in vivo
[15] = Toxicity in male Wistar rat assessed as histological change in renal parenchyma at 10 mg/kg, po by H and E staining based analysis; assay type: organism-based; settings: in vivo
[16] = Toxicity in male Wistar rat assessed as creatinine level at 10 mg/kg, po (reference value: 0.68 +/- 0.1 mg/dL); assay type: organism-based; settings: in vivo
[17] = Toxicity in male Wistar rat assessed as RDW-CV level at 10 mg/kg, po (reference value: 16.93 +/- 1.69 %); assay type: organism-based; settings: in vivo
[18] = Toxicity in male Wistar rat assessed as haematocrit level at 10 mg/kg, po (reference value: 39.01 +/- 1.12 %); assay type: organism-based; settings: in vivo
[19] = Toxicity in male Wistar rat assessed as HB level at 10 mg/kg, po (reference value: 13.11 +/- 0.48 g/dL); assay type: organism-based; settings: in vivo
[20] = Toxicity in male Wistar rat assessed as histopathological change in kidney at 10 mg/kg, po by H and E staining based analysis; assay type: organism-based; settings: in vivo
[21] = Toxicity in male Wistar rat assessed as AST level at 10 mg/kg, po (reference value: 78.16 +/- 9.37 U/L); assay type: organism-based; settings: in vivo
[22] = Toxicity in male Wistar rat assessed as albumin level at 10 mg/kg, po (reference value: […]); assay type: organism-based; settings: in vivo
[23] = Toxicity in male Wistar rat assessed as MPV level at 10 mg/kg, po (reference value: 7.01 +/- 0.28 fL); assay type: organism-based; settings: in vivo
[24] = Toxicity in male Wistar rat assessed as MCV level at 10 mg/kg, po (reference value: 59.92 +/- 2.2 fL); assay type: organism-based; settings: in vivo

T1 sequence (P22303 whole entry): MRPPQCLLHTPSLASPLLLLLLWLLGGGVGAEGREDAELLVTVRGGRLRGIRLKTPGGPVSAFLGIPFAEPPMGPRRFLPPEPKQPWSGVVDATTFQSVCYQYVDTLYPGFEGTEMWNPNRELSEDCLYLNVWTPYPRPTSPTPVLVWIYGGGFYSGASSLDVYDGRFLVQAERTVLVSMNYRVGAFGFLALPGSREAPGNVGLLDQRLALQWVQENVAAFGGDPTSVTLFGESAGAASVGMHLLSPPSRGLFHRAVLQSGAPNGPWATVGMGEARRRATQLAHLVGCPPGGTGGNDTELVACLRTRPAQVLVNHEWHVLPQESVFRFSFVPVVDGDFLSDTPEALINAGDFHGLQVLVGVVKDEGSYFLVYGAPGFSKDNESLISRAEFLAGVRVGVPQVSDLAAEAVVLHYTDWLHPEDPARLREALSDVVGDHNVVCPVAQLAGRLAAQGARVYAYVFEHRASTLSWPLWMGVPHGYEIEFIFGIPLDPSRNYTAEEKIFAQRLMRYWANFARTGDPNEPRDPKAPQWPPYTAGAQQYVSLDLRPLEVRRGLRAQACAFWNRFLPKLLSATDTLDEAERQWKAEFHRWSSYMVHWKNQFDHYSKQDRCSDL
Sequence of Cholinesterase (P06276 whole entry): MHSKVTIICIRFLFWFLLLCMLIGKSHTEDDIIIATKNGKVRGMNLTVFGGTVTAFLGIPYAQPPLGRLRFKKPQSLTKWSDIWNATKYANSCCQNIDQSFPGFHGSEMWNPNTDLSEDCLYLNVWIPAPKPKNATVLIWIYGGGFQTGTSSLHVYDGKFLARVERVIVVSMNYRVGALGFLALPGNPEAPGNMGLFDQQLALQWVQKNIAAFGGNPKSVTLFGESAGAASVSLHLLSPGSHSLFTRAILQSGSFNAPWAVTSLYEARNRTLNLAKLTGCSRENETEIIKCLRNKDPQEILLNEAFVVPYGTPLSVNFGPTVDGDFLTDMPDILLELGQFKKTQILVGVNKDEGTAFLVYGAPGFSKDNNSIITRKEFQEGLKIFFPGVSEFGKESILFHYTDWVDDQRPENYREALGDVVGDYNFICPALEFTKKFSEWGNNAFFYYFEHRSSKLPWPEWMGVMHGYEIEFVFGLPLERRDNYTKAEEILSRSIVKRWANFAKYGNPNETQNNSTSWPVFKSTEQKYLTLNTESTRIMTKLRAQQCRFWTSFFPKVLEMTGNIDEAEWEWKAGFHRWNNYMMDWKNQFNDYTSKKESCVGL

**Q.** Which results are given for `Cc1ccc(-c2[nH]ncc2-c2cc(OCC(=O)Nc3ccccc3)ccc2O)cc1`?
**A.** IC50 (Acetylcholinesterase [1]): 40.8 µM; IC50 [2]: 3.24 µg/mL (≈ 8.11 µM)

**Q.** Which results are given for `Cc1ccc(NC(=O)COc2ccc(O)c(-c3cn[nH]c3-c3ccccc3)c2)cc1`?
**A.** IC50 (Acetylcholinesterase [1]): 29.3 µM; IC50 [2]: 9.93 µg/mL (≈ 24.9 µM)

**Q.** With `O=C(COc1ccc2occ(C(=O)c3ccccc3)c2c1)Nc1ccc(Cl)cc1` as the compound, how does the IC50 (Acetylcholinesterase [1]) read?
**A.** 40.6 µM

**Q.** And the IC50 [2]?
**A.** 132 µg/mL (≈ 325 µM)

**Q.** Which IC50 (Acetylcholinesterase [1]) does the source give for `Cc1ccc(C(=O)c2coc3ccc(OCC(=O)Nc4ccc(Cl)cc4)cc23)cc1` here?
**A.** 52 µM

**Q.** And the IC50 [2]?
**A.** 732 µg/mL (≈ 1740 µM)

**Q.** Which IC50 (Acetylcholinesterase [1]) does the source give for `O=C(COc1ccc(O)c(-c2cn[nH]c2-c2ccc(Cl)cc2)c1)Nc1ccc(Cl)cc1` here?
**A.** 119 µM

**Q.** What about the IC50 [2] of the same compound?
**A.** 3.18 µg/mL (≈ 7 µM)

**Q.** Which results are given for `O=C(COc1ccc2occ(C(=O)c3ccc(Cl)cc3)c2c1)Nc1ccccc1`?
**A.** IC50 (Acetylcholinesterase [1]): 0.961 µM; IC50 [2]: 153 µg/mL (≈ 377 µM); IC50 (Cholinesterase): 1.26 µM

**Q.** For `O=C(COc1ccc(O)c(-c2cn[nH]c2-c2ccccc2)c1)Nc1ccccc1`, which IC50 (Acetylcholinesterase [1]) is on record?
**A.** 50.2 µM

**Q.** What about the IC50 [2] of the same compound?
**A.** 3.07 µg/mL (≈ 7.97 µM)

**Q.** With `Cc1ccc(NC(=O)COc2ccc3occ(C(=O)c4ccc(Cl)cc4)c3c2)cc1` as the compound, how does the IC50 (Acetylcholinesterase [1]) read?
**A.** 11.9 µM

**Q.** And the IC50 [2]?
**A.** 375 µg/mL (≈ 893 µM)

**Q.** With `O=C(COc1ccc(O)c(-c2cn[nH]c2-c2ccccc2)c1)Nc1ccc(Cl)cc1` as the compound, how does the IC50 (Acetylcholinesterase [1]) read?
**A.** 40.5 µM

**Q.** What about the IC50 [2] of the same compound?
**A.** 2.59 µg/mL (≈ 6.17 µM)

**Q.** With `O=C(COc1ccc2occ(C(=O)c3ccc(Cl)cc3)c2c1)Nc1ccc(Cl)cc1` as the compound, how does the IC50 (Acetylcholinesterase [1]) read?
**A.** 18.1 µM

**Q.** And the IC50 [2]?
**A.** 630 µg/mL (≈ 1430 µM)

**Q.** Which IC50 (Acetylcholinesterase [1]) does the source give for `O=C(COc1ccc(O)c(-c2cn[nH]c2-c2ccc(Cl)cc2)c1)Nc1ccccc1` here?
**A.** 13.7 µM

**Q.** And the IC50 [2]?
**A.** 5.87 µg/mL (≈ 14 µM)

**Q.** For `Cc1ccc(NC(=O)COc2ccc(O)c(-c3cn[nH]c3-c3ccc(Cl)cc3)c2)cc1`, which IC50 (Acetylcholinesterase [1]) is on record?
**A.** 43.4 µM

**Q.** What about the IC50 [2] of the same compound?
**A.** 4.94 µg/mL (≈ 11.4 µM)

**Q.** For `O=C1O[C@H]([C@@H](O)CO)C(O)=C1O` [ASCORBIC ACID], which IC50 [2] is on record?
**A.** 2.85 µg/mL (≈ 16.2 µM)

**Q.** For `Cc1ccc(NC(=O)COc2ccc3occ(C(=O)c4ccc(C)cc4)c3c2)cc1`, which IC50 (Acetylcholinesterase [1]) is on record?
**A.** 59.3 µM

**Q.** What about the IC50 [2] of the same compound?
**A.** 240 µg/mL (≈ 601 µM)

**Q.** With `O=C(COc1ccc2occ(C(=O)c3ccccc3)c2c1)Nc1ccccc1` as the compound, how does the IC50 (Acetylcholinesterase [1]) read?
**A.** 2.07 µM

**Q.** And the IC50 [2]?
**A.** 587 µg/mL (≈ 1580 µM)

**Q.** What about the IC50 (Cholinesterase) of the same compound?
**A.** 3.39 µM

**Q.** Which Activity [3] does the source give for `Cc1ccc(-c2[nH]ncc2-c2cc(OCC(=O)Nc3ccc(Cl)cc3)ccc2O)cc1` here?
**A.** 19.51 pg

**Q.** And the Activity [4]?
**A.** 4.86 10^3/mm3

**Q.** And the Activity [5]?
**A.** 32.59 g/dL

**Q.** What about the Activity [6] of the same compound?
**A.** 30.25 mg/dL

**Q.** What about the inhibition (Acetylcholinesterase [7]) of the same compound?
**A.** Active

**Q.** What about the Activity [8] of the same compound?
**A.** 0.63 mg/dL

**Q.** And the Activity [9]?
**A.** Toxic

**Q.** And the Activity [10]?
**A.** Non-toxic

**Q.** And the IC50 (Acetylcholinesterase [1])?
**A.** 2.86 µM

**Q.** And the Activity [11]?
**A.** Non-toxic

**Q.** And the Activity [12]?
**A.** 42.97 U/L

**Q.** And the IC50 [2]?
**A.** 3.15 µg/mL (≈ 7.26 µM)

**Q.** What about the Activity [13] of the same compound?
**A.** 137.33 U/L

**Q.** What about the Activity [14] of the same compound?
**A.** 7.14 10^6/mm3

**Q.** What about the Activity [15] of the same compound?
**A.** Non-toxic

**Q.** What about the Activity [16] of the same compound?
**A.** 0.69 mg/dL

**Q.** And the Activity [17]?
**A.** 16.64%

**Q.** What about the Activity [18] of the same compound?
**A.** 38.32%

**Q.** And the Activity [19]?
**A.** 13.28 g/dL

**Q.** And the IC50 (Cholinesterase)?
**A.** 4.26 µM

**Q.** And the Activity [20]?
**A.** Non-toxic

**Q.** What about the Activity [21] of the same compound?
**A.** 76.11 U/L

**Q.** And the Activity [22]?
**A.** 3.31 g/dL

**Q.** And the Activity [23]?
**A.** 6.91 fL

**Q.** And the Activity [24]?
**A.** 60.31 fL

**Q.** Which results are given for `Cc1ccc(NC(=O)COc2ccc(O)c(-c3cn[nH]c3-c3ccc(C)cc3)c2)cc1`?
**A.** IC50 (Acetylcholinesterase [1]): 4.76 µM; IC50 [2]: 4.26 µg/mL (≈ 10.3 µM); IC50 (Cholinesterase): 8.63 µM

**Q.** Which results are given for `Cc1ccc(C(=O)c2coc3ccc(OCC(=O)Nc4ccccc4)cc23)cc1`?
**A.** IC50 (Acetylcholinesterase [1]): 3.22 µM; IC50 [2]: 363 µg/mL (≈ 942 µM); IC50 (Cholinesterase): 18.6 µM

**Q.** What does the source list for `Cc1ccc(NC(=O)COc2ccc3occ(C(=O)c4ccccc4)c3c2)cc1`?
**A.** IC50 (Acetylcholinesterase [1]): 21.4 µM; IC50 [2]: 262 µg/mL (≈ 680 µM)
